Patent US10730868B2, “Bicyclic heteroaryl substituted compounds” (BRISTOL-MYERS SQUIBB COMPANY, priority 2016, dated 2020)
Where two headings read alike, the source gives them in different places.

Target: PAR4 (Homo sapiens (Human), UniProt Q96RI0)
Experiment: PAR4 FLIPR assay (antagonism of agonist-peptide-induced calcium mobilization)
Assay type: cell-based
Conditions: PAR4-expressing HEK293 cells, read-out: PAR4 FLTPR assay (IC50)
Description: The Fluorometric Imaging Plate Reader (FLIPR) assay is an exemplary in vitro assay for measuring the activity of the PAR4 antagonists of the present invention. In this assay, intracellular calcium mobilization is induced in PAR4 expressing cells by a PAR4 agonist and calcium mobilization is monitored.
HEK293 cells stably expressing PAR4 were generated by a standard method of transfection of human PAR4 (F2R23) cDNA expression vector and selected based on PAR4 protein expression or mRNA expression. […] These cells also express endogenous PAR1 and can elicit calcium signal upon stimulation with PAR1 agonist peptide. Therefore, the same cells were also used to determine selectivity against PAR1 and agonist activity for both receptors. Cells from HEK293 PAR4 Clone 1.2A (BMS Arctic ID 383940) were propagated and used for calcium mobilization studies.
FLIPR-based calcium mobilization assay in HEK293 cells was used to measure PAR4 antagonism agonism, and selectivity against PAR1. The activity of the PAR4 antagonists of the present invention were tested in PAR4 expressing cells by monitoring H-Ala-Phe(4-F)-[…]NH2-induced intracellular calcium mobilization. Counter screens for agonist activity and PAR1 antagonist activity were also performed. Briefly, PAR/PAR4-expressing HEK293 cells were grown in DMEM (Life Technology, Grand Island, N.Y.) containing 10% heat-inactivated FBS, 1% Penicillin-Streptomycin, 10 μg/mL blasticidin, and 100 μg/mL Zeocin at 37° C. with 5% CO2. Cells were plated overnight prior to the experiment in a black 384-well Purecoat Amine clear bottom plate (Becton Dickinson Biosciences, San Jose, Calif.) at 10,000 cells/well in 30 μL growth medium and incubated in a humidified chamber at 37° C. with 5% CO2 overnight. Prior to compound addition, the cell medium was replaced with 40 μL of 1× calcium and magnesium-containing Hank's Balanced Saline Solution (HBSS) (with 20 mM HEPES) and 1:1000 diluted fluorescent calcium indicator (Codex Biosolutions, Gaithersburg, Md.). After a 30 minute incubation period at 37° C. and a further 30 minute incubation and equilibration period at room temperature, 20 μL test compound (diluted in 1×HBSS buffer) was added at various concentrations at 0.17% dimethyl sulfoxide (DMSO) final concentration. Changes in fluorescence intensity were measured using a Functional Drug Screening System (FDSS, Hamamatsu, Japan) to determine agonist activities. The cells were then incubated for 30 minutes at room temperature followed by addition of 20 μL of agonist peptide for antagonist activity measurement. […] Compound potency was derived from 11-point concentration-response curves.

[1] = H-Ala-Phe(4-F)-[…]NH2-induced intracellular calcium mobilization
[2] = H-Ala-Phe(4-F)-Pro-Gly-Trp-Leu-Val-Lys-Asn-Gly-NH2-induced intracellular calcium mobilization

PAR4, sequence (Q96RI0 18-385): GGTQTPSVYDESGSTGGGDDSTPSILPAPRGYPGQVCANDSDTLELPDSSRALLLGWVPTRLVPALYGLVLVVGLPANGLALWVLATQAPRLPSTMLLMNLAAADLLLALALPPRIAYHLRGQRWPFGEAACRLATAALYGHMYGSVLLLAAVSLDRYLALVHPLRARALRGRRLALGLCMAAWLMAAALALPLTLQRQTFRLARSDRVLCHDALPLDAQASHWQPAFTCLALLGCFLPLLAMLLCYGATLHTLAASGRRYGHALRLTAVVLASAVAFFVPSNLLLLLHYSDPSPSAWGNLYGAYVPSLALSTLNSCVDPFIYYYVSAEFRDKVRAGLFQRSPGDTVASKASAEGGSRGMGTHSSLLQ

SMILES | IC50 [1] | IC50 [2]
COc1cnc2c(-c3nc4cc(F)c(O[C@@H]5CC[C@@H]5OC(=O)Nc5cnc(C)nc5)cc4s3)cc(C)cc2n1 (racemic) [Example 61, rac-cis-2-((5-fluoro-2-(2-methoxy-7-methylquinoxalin-5-yl)benzo[d]thiazol-6-yl)oxy) cyclobutyl (2-methylpyrimidin-5-yl)carbamate] | 1.3 nM | –
COc1cnc2c(-c3nc4cc(F)c(O[C@@H]5CC[C@@H]5OC(=O)Nc5cnc(CCO)nc5)cc4s3)cc(C)cc2n1 [Example 70] | – | 9 nM
COc1ccc(NC(=O)O[C@@H]2CC[C@@H]2Oc2cc3sc(-c4cc(C)cc5nc(OC)cnc45)nc3cc2F)cn1 [Example 73] | – | 0.5 nM
COc1cnc2c(-c3nc4cc(F)c(O[C@H]5CCC[C@H]5OC(=O)Nc5ccc(C(=O)N(C)C)nc5)cc4s3)cc(C)cc2n1 [Example 50, (1R,2S)-2-((5-fluoro-2-(2-methoxy-7-methylquinoxalin-5-yl)benzo[d]thiazol-6-yl)oxy)cyclopentyl (6-(dimethylcarbamoyl)pyridin-3-yl)carbamate] | – | 3.4 nM
COc1cnc2c(-c3nc4cc(F)c(O[C@@H]5CCC[C@@H]5OC(=O)Nc5cnc(C)nc5)cc4s3)cc(C#N)cc2n1 (racemic) [Example 46, rac-cis-2-((2-(7-cyano-2-methoxyquinoxalin-5-yl)-5-fluorobenzo[d]thiazol-6-yl)oxy)cyclopentyl (2-methylpyrimidin-5-yl)carbamate] | 2 nM | –
CNC(=O)c1ccc(NC(=O)O[C@@H]2CCC[C@@H]2Oc2cc3sc(-c4cc(C)cc5nc(OC)cnc45)nc3cc2F)cn1 [Example 48, (1R,2S)-2-((5-fluoro-2-(2-methoxy-7-methylquinoxalin-5-yl)benzo[d]thiazol-6-yl)oxy)cyclopentyl (6-(methylcarbamoyl)pyridin-3-yl)carbamate] | – | 2.4 nM
COc1cnc2c(-c3nc4cc(F)c(O[C@@H]5CCC[C@@H]5OC)cc4s3)cc(C)cc2n1 (racemic) [Example 40, rac-5-fluoro-2-(2-methoxy-7-methylquinoxalin-5-yl)-6-((cis-2-methoxycyclopentyl)oxy)benzo[d]thiazole] | 83 nM | –
COc1cnc2c(-c3nc4cc(F)c(O[C@H]5CCC[C@H]5OC(=O)Nc5ncc(C)cn5)cc4s3)cc(C)cc2n1 [Example 26] | – | 83 nM
COc1cnc2c(-c3nc4cc(F)c(O[C@@H]5CC[C@@H]5OC(=O)Nc5cnc(C)nc5)cc4s3)cc(C)cc2n1 [Example 67] | – | 0.99 nM
COc1cnc2c(-c3nc4cc(F)c(O[C@H]5CC(F)(F)CC[C@H]5OC(=O)Nc5ccc(CO)nc5)cc4s3)cc(C)cc2n1 [Example 6] | – | 0.76 nM
COc1cnc2c(-c3nc4cc(F)c(O[C@H]5CC(F)(F)C[C@H]5OC(=O)Nc5cnc(C)nc5)cc4s3)cc(C)cc2n1 [Example 100] | – | 1.3 nM
COc1cnc2c(-c3nc4cc(F)c(O[C@H]5CC(F)(F)CC[C@H]5OC(=O)Nc5ccc(CCO)nc5)cc4s3)cc(C)cc2n1 [Example 5] | – | 6.8 nM
COc1cnc2c(-c3nc4cc(F)c(O[C@@H]5CC[C@@H]5OC(=O)Nc5cnc(OCCO)nc5)cc4s3)cc(Cl)cc2n1 [Example 78] | – | 9.7 nM
COc1cnc2c(-c3nc4cc(F)c(O[C@@H]5CCC[C@@H]5OC(=O)Nc5cncc(C#N)c5)cc4s3)cc(C#N)cc2n1 (racemic) [Example 45, rac-cis-2-((2-(7-cyano-2-methoxyquinoxalin-5-yl)-5-fluorobenzo[d]thiazol-6-yl)oxy)cyclopentyl (5-cyanopyridin-3-yl)carbamate] | 2.2 nM | –
COc1cnc2c(-c3nc4cc(F)c(O[C@@H]5CCC[C@@H]5OC(=O)Nc5cnc(C)nc5)cc4s3)cc(C)cc2n1 [Example 27] | – | 58 nM
COc1cnc2c(-c3nc4cc(F)c(O[C@@H]5CCCC[C@@H]5OC(=O)Nc5ccncc5)cc4s3)cc(C)cc2n1 (racemic) [Example 56, rac-cis-2-((5-fluoro-2-(2-methoxy-7-methylquinoxalin-5-yl)benzo[d]thiazol-6-yl)oxy) cyclohexyl pyridin-4-ylcarbamate] | 1.8 nM | –
COc1ccc(NC(=O)O[C@H]2CC[C@H]2Oc2cc3sc(-c4cc(C)cc5nc(OC)cnc45)nc3cc2F)cn1 [Example 72] | – | 1.1 nM
COc1ccc(NC(=O)O[C@H]2CC[C@H]2Oc2cc3sc(-c4cc(C)cc5nc(OC)cnc45)nc3cc2F)cn1 (racemic) [Example 66] | 0.79 nM | –
COc1cnc2c(-c3nc4cc(F)c(O[C@@H]5CN(C(=O)C(F)(F)F)CC[C@@H]5OC(=O)Nc5cnc(C)nc5)cc4s3)cc(C)cc2n1 (racemic) [Example 96, rac-cis-3-((5-fluoro-2-(2-methoxy-7-methylquinoxalin-5-yl)benzo[d]thiazol-6-yl)oxy)-1-(2,2,2-trifluoroacetyl)piperidin-4-yl (2-methylpyrimidin-5-yl)carbamate] | 44 nM | –
COc1cnc2c(-c3nc4cc(F)c(O[C@@H]5CN(C(=O)OCc6ccccc6)C[C@H]5O)cc4s3)cc(C)cc2n1 (racemic) [Example 90, rac-trans-benzyl 3-((5-fluoro-2-(2-methoxy-7-methylquinoxalin-5-yl)benzo[d]thiazol-6-yl)oxy)-4-hydr oxopyrrolidine-1-carboxylate] | 330 nM | –
COc1cnc2c(-c3nc4cc(F)c(O[C@@H]5CC[C@@H]5OC(=O)Nc5cnc(OCCO)nc5)cc4s3)cc(C)cc2c1 (stereo in doubt) [Example 74, cis-2-((5-fluoro-2-(3-methoxy-6-methylquinolin-8-yl)benzo[d]thiazol-6-yl)oxy)cyclo butyl (2-(2-hydroxyethoxy)pyrimidin-5-yl)carbamate (Homochiral)] | – | 8.9 nM
COc1cnc2c(-c3nc4cc(F)c(O[C@H]5CC(F)(F)CC[C@H]5OC(=O)Nc5cnc(OCCO)nc5)cc4s3)cc(Cl)cc2c1 [Example 16, (1R,2S)-2-((2-(6-chloro-3-methoxyquinolin-8-vi)-5-fluorobenzo[d]thiazol-6-yl)oxy)-4,4-difluorocyclohexyl (2-(2-hydroxyethoxy)pyrimidin-5-yl)carbamate] | – | 1.3 nM
COc1ccc(NC(=O)O[C@@H]2CCC[C@@H]2Oc2cc3sc(-c4cc(C)cc5nc(OC)cnc45)nc3cc2F)cc1 [Example 25] | – | 1.3 nM
COc1cnc2c(-c3nc4cc(F)c(O[C@H]5CCC[C@H]5OC(=O)Nc5cnc(C)nc5)cc4s3)cc(C)cc2n1 [Example 37] | – | 4 nM
COc1cnc2c(-c3nc4cc(F)c(O[C@H]5CCC[C@H]5OC(=O)Nc5ccnc(C)c5)cc4s3)cc(C)cc2n1 [Example 30] | – | 2.6 nM
COc1cnc2c(-c3nc4cc(F)c(O[C@H]5CCCC[C@H]5OC(=O)Nc5cccnc5)cc4s3)cc(C)cc2n1 (single isomer, unassigned; enantiomer 1) [Example 58, cis-2-((5-fluoro-2-(2-methoxy-7-methylquinoxalin-5-yl)benzo[d]thiazol-6-yl)oxy)cyclohexyl pyridin-3-ylcarbamate (Enantiomer 1)] | 1.4 nM | –
COc1cnc2c(-c3nc4cc(F)c(O[C@@H]5CN(C(=O)OC(C)(C)C)CC[C@@H]5OC(=O)Nc5cnc(C)nc5)cc4s3)cc(C)cc2n1 (racemic) [Example 91, rac-cis-tert-butyl 3-((5-fluoro-2-(2-methoxy-7-methylquinoxalin-5-yl)benzo[d]thiazol-6-yl)oxy)-4-(((2-methylpyrimidin-5-yl)carbamoyl)oxy)piperidine-1-carboxylate] | 3.8 nM | –
COc1ccc(NC(=O)O[C@@H]2CCC[C@H]2Oc2cc3sc(-c4cc(C)cc5nc(OC)cnc45)nc3cc2F)cn1 (racemic) [Example 28] | 96 nM | –
COc1cnc2c(-c3nc4cc(F)c(OC5CC(F)(F)CC[C@@H]5OC(=O)Nc5cncc(C#N)c5)cc4s3)cc(C)cc2n1 (mixture of isomers) [Example 12] | 5.7 nM | –
COc1cnc2c(-c3nc4cc(F)c(O[C@H]5CCC[C@H]5OC(=O)Nc5cnc(C(N)=O)nc5)cc4s3)cc(C)cc2n1 [Example 52, (1R,2S)-2-((5-fluoro-2-(2-methoxy-7-methylquinoxalin-5-yl)benzo[d]thiazol-6-yl)oxy)cyclopentyl (2-carbamoylpyrimidin-5-yl)carbamate] | – | 2.5 nM
